Test results published in patent publication US20240300899A1, “A QUINOLONE COMPOUND IN SOLID FORMS AND PROCESSES FOR THE PREPARATION THEREOF” (ZYDUS LIFESCIENCES LIMITED, priority 2021, published 2024).

Key:
Format in all cases: physicochemical
[1] = Hygroscopicity test as per EP general texts 5.11; settings: 24-hour exposure over saturated ammonium chloride solution, 25±1° C., 80±2% relative humidity
Description: Hygroscopicity Data: The test for hygroscopicity was performed as per EP general texts 5.11 page no 565. The test was performed by calculating the difference in weights, after 24-hour upon expose over a saturated solution of ammonium chloride at 25±1° C. and 80±2% relative humidity.

[2] = Stability data on storage (HPLC purity, polymorphic form, impurity content)
Description: The crystalline form of compound of Formula (I) is characterized by X-ray powder diffraction (XRPD) pattern. In particular, the solid form of compound of Formula (I) is characterized by X-ray powder diffraction pattern obtained using CuKα1 radiation on a PANalytical X'Pert Pro or equivalent X-ray powder diffraction instrument. Particularly, the X-ray powder diffraction spectrum was measured under the following experimental conditions: The HPLC purity of the compound of Formula (I) was calculated using following method: Instrument Name: Waters Alliance e2695 HPLC system or equivalent [table] [table] [table]

[3] = Powder properties (bulk density, tapped density, angle of repose)
[4] = 25° C. ± 2° C. and 60% ± 5% Relative Humidity, 1 month
[5] = 25° C. ± 2° C. and 60% ± 5% Relative Humidity, 15 days
[6] = 25° C. ± 2° C. and 60% ± 5% Relative Humidity, Initial
[7] = 30° C. ± 2° C. and 65% ± 5% Relative Humidity, 1 month
[8] = 30° C. ± 2° C. and 65% ± 5% Relative Humidity, 15 days
[9] = 30° C. ± 2° C. and 65% ± 5% Relative Humidity, Initial
[10] = 40° C. ± 2° C. and 75% ± 5 % Relative Humidity, 1 month
[11] = 40° C. ± 2° C. and 75% ± 5 % Relative Humidity, 15 days
[12] = 40° C. ± 2° C. and 75% ± 5 % Relative Humidity, Initial

## O=C(O)CNC(=O)c1c(O)c2ccccc2n(OCC2CC2)c1=O [Example-1, (1-(cyclopropylmethoxy)-4-hydroxy-2-oxo-1,2-dihydroquinoline-3-carbonyl) glycine]
[1]
  Hygroscopicity result: Non-hygroscopic
  Increase in mass (hygroscopicity): less than 0.2%
[2]; [4]
  Content of Compound of Formula D: 0.04%
  HPLC Purity: 99.91%
  Polymorphic form: Unchanged
[2]; [5]
  Content of Compound of Formula D: 0.05%
  HPLC Purity: 99.87%
  Polymorphic form: Unchanged
[2]; [6]
  Content of Compound of Formula D: 0.04%
  HPLC Purity: 99.9%
[2]; [7]
  Content of Compound of Formula D: 0.04%
  HPLC Purity: 99.91%
  Polymorphic form: Unchanged
[2]; [8]
  Content of Compound of Formula D: 0.05%
  HPLC Purity: 99.83%
  Polymorphic form: Unchanged
[2]; [9]
  Content of Compound of Formula D: 0.04%
  HPLC Purity: 99.9%
[2]; [10]
  Content of Compound of Formula D: 0.04%
  HPLC Purity: 99.92%
  Polymorphic form: Unchanged
[2]; [11]
  Content of Compound of Formula D: 0.05%
  HPLC Purity: 99.85%
  Polymorphic form: Unchanged
[2]; [12]
  Content of Compound of Formula D: 0.04%
  HPLC Purity: 99.9%
[3]
  Angle of Repose: 30.6 °
  Bulk Density: 0.61 g/mL
  Tapped Density: 0.73 g/mL
